Values of other authors in patent publication US9682051B2, “Acyclovir and meloxicam combination therapy for functional somatic syndromes” (INNOVATIVE MED CONCEPTS, LLC, priority 2012, dated 2017).

Tested on: fibromyalgia patients
Settings: valacyclovir alone

CC(C)[C@H](N)C(=O)OCCOCn1cnc2c(=O)[nH]c(N)nc21 [valacyclovir]
Outcome of treating fibromyalgia patients: not successful
